What was measured:
Escherichia coli 0-111 [1] = test: Therapeutic effects on infected mice; type: in vivo, Male mouse, ICR/SLC; details: Escherichia coli, 0111, sc, 168 h, Table 4; s.c. single dose immediately after intraperitoneal infection; 7 days observation
Method: The therapeutic efficacies of several representative compounds [I] of this invention and of cephaloridine on infected mice are also set forth in the tables.
(b) Therapeutic effects on infected mice (Table 3 and Table 4)
Test animal: Male mouse, ICR/SLC
A group of five animals was employed per drug.
Route of infection: Intraperitoneal
Infectious bacteria: Escherichia coli 0-111
Period of observation: 7 days
Method of administration: Test compound (1 mg, 10 mg, 100 mg or 200 mg) was dissolved in sterile saline solution (100 ml) and 0.2 ml of the solution was administered subcutaneously as a single dose immediately after infection. Two fold dilutions of each solution were administered to five groups of 5 mice each.

[2] = tested on: Escherichia coli NIHJ JC-2; test: Minimal inhibitory concentration, agar serial dilution; type: cell-based; details: TSA, inoculum 10^7 /ml
Description: (§1) (a) Minimal inhibitory concentrations (Table 1 and 2)
(§2) Method: Agar serial dilution

[3] = tested on: Enterobacter cloacae TN1282; test: as above; type: cell-based; details: TSA, inoculum 10^7 /ml
Description: as §1, §2

Escherichia coli T-7 = test: as above; type: cell-based; details: TSA, inoculum 10^7 /ml
Description: as §1, §2

Proteus rettgeri TN338 = test: as above; type: cell-based; details: TSA, inoculum 10^7 /ml
Description: as §1, §2

Proteus vulgaris GN4413 = test: as above; type: cell-based; details: TSA, inoculum 10^7 /ml
Description: as §1, §2

[4] = tested on: Serratia marcescens IFO 12648; test: as above; type: cell-based; details: TSA, inoculum 10^7 /ml
Description: as §1, §2

[5] = tested on: Klebsiella pneumoniae GN-3835; test: as above; type: cell-based; details: TSA, inoculum 10^7 /ml
Description: as §1, §2

Serratia marcescens TN24 = test: as above; type: cell-based; details: TSA, inoculum 10^7 /ml
Description: as §1, §2

[6] = tested on: Citrobacter freundii GN1706; test: as above; type: cell-based; details: TSA, inoculum 10^7 /ml
Description: as §1, §2

Proteus morganii IFO3168 = test: as above; type: cell-based; details: TSA, inoculum 10^7 /ml
Description: as §1, §2

Proteus rettgeri GN4733 = test: as above; type: cell-based; details: TSA, inoculum 10^7 /ml
Description: as §1, §2

[7] = tested on: Staphylococcus aureus 1840; test: as above; type: cell-based; details: TSA, inoculum 10^7 /ml
Description: as §1, §2

[8] = tested on: Citrobacter freundii GN99; test: as above; type: cell-based; details: TSA, inoculum 10^7 /ml
Description: as §1, §2

Klebsiella pneumoniae DT = test: as above; type: cell-based; details: TSA, inoculum 10^7 /ml
Description: as §1, §2

[9] = tested on: Proteus vulgaris IFO 3988; test: as above; type: cell-based; details: TSA, inoculum 10^7 /ml
Description: as §1, §2

Proteus mirabilis GN4359 = test: as above; type: cell-based; details: TSA, inoculum 10^7 /ml
Description: as §1, §2

Escherichia coli 0-111 [10] = test: as above; type: cell-based; details: TSA, inoculum 10^7 /ml
Description: as §1, §2

[11] = tested on: Staphylococcus aureus 209P; test: as above; type: cell-based; details: TSA, inoculum 10^7 /ml
Description: as §1, §2

SMILES: Cn1cnnc1SCC1=C(C(=O)O)N2C(=O)C(NC(=O)/C(=N\O)c3csc(=N)[nH]3)C2SC1 (stereo not drawn) [Example 15, sodium 7-[2-(2-imino-4-thiazolin-4-yl)-2-hydroxyimino-acetamido]-3-(4-methyl-1,2,4-triazol-3-yl)thiomethyl-3-cephem-4-carboxylate (syn-isomer)]
- ED50 (Escherichia coli 0-111 [1]): 0.016 mg/kg
- Minimal inhibitory concentration (MIC) [2]: 0.024
- Minimal inhibitory concentration (MIC) [3]: 1.56
- Minimal inhibitory concentration (MIC) (Escherichia coli T-7): 0.39
- Minimal inhibitory concentration (MIC) (Proteus rettgeri TN338): ≤ 0.012
- Minimal inhibitory concentration (MIC) (Proteus vulgaris GN4413): 3.13
- Minimal inhibitory concentration (MIC) [4]: 0.78
- Minimal inhibitory concentration (MIC) [5]: 0.05
- Minimal inhibitory concentration (MIC) (Serratia marcescens TN24): 0.78
- Minimal inhibitory concentration (MIC) [6]: 0.05
- Minimal inhibitory concentration (MIC) (Proteus morganii IFO3168): 0.024
- Minimal inhibitory concentration (MIC) (Proteus rettgeri GN4733): 0.10
- Minimal inhibitory concentration (MIC) [7]: 0.78
- Minimal inhibitory concentration (MIC) [8]: 0.05
- Minimal inhibitory concentration (MIC) (Klebsiella pneumoniae DT): 0.024
- Minimal inhibitory concentration (MIC) [9]: 0.05
- Minimal inhibitory concentration (MIC) (Proteus mirabilis GN4359): 0.10
- Minimal inhibitory concentration (MIC) (Escherichia coli 0-111 [10]): ≤ 0.012
- Minimal inhibitory concentration (MIC) [11]: 0.78

From patent publication US4963542A, “Cephalosporin derivatives” (Takeda Chemical Industries, Ltd., priority 1976, dated 1990)
